Measurements reported in PubChem BioAssay AID248 (DTP/NCI, 2004).
Inconclusive results and toxic doses are left out. Cut-off read from the data, not from the text of the source: active = T/C of 150% or more; inactive = T/C below 125%.

Test system: L1210 leukemia ip in BDF1 mice, survival T/C
Test: NCI In Vivo Anticancer Drug Screen. Data for tumor model L1210 Leukemia (intraperitoneal) in B6D2F1 (BDF1) mice
Conditions: endpoint: mean survival time, higher = longer survival
In short: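 Transplantable tumor model; survival measured in treated vs vehicle control mice. Value = treated/control.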

[1] = dose: 100.0 mg/kg/injection, schedule: Q01DX001 (ip), vehicle: saline
[2] = dose: 100.0 mg/kg/injection, schedule: Q01DX009 (ip), vehicle: saline
[3] = dose: 200.0 mg/kg/injection, schedule: Q01DX001 (ip), vehicle: saline
[4] = dose: 200.0 mg/kg/injection, schedule: Q01DX009 (ip), vehicle: saline with Tween-80
[5] = dose: 200.0 mg/kg/injection, schedule: Q01DX009 (ip), vehicle: saline
[6] = dose: 400.0 mg/kg/injection, schedule: Q01DX001 (ip), vehicle: saline
[7] = dose: 100.0 mg/kg/injection, schedule: Q01DX009 (ip), vehicle: Klucel (hydroxypropylcellulose) (HPC)
[8] = dose: 200.0 mg/kg/injection, schedule: Q01DX009 (ip), vehicle: Klucel (hydroxypropylcellulose) (HPC)
[9] = dose: 400.0 mg/kg/injection, schedule: Q01DX009 (ip), vehicle: Klucel (hydroxypropylcellulose) (HPC)
[10] = dose: 100.0 mg/kg/injection, schedule: Q01DX001 (ip), vehicle: acetone
[11] = dose: 200.0 mg/kg/injection, schedule: Q01DX001 (ip), vehicle: acetone
[12] = dose: 400.0 mg/kg/injection, schedule: Q01DX001 (ip), vehicle: acetone
[13] = dose: 100.0 mg/kg/injection, schedule: Q04DX003 (ip), vehicle: Klucel (hydroxypropylcellulose) (HPC)
[14] = dose: 200.0 mg/kg/injection, schedule: Q04DX003 (ip), vehicle: Klucel (hydroxypropylcellulose) (HPC)
[15] = dose: 400.0 mg/kg/injection, schedule: Q04DX003 (ip), vehicle: Klucel (hydroxypropylcellulose) (HPC)

Measured: T/C

CC(=O)Nc1ccc2c(c1)C(N)c1ccccc1-2 (stereo not drawn)
inactive: dose: 88.0 mg/kg/injection, schedule: Q01DX Z (ip), vehicle: carboxymethylcellulose (CMC) 103 % of control | dose: 88.0 mg/kg/injection, schedule: Q01DX Z (ip), vehicle: saline 94 % of control | [1] 113 % of control | [2] 105 % of control | dose: 100.0 mg/kg/injection, schedule: Q04DX003 (ip), vehicle: saline 98 % of control | dose: 132.0 mg/kg/injection, schedule: Q01DX009 (ip), vehicle: saline with Tween-80 111 % of control | dose: 132.0 mg/kg/injection, schedule: Q01DX009 (ip), vehicle: saline 99 % of control | dose: 133.0 mg/kg/injection, schedule: Q01DX Z (ip), vehicle: carboxymethylcellulose (CMC) 92 % of control | dose: 133.0 mg/kg/injection, schedule: Q01DX Z (ip), vehicle: saline 98 % of control | [3] 113 % of control | [4] 118 % of control | [5] 108 % of control | dose: 200.0 mg/kg/injection, schedule: Q01DX Z (ip), vehicle: carboxymethylcellulose (CMC) 105 % of control | dose: 200.0 mg/kg/injection, schedule: Q04DX003 (ip), vehicle: saline 103 % of control | dose: 300.0 mg/kg/injection, schedule: Q01DX009 (ip), vehicle: saline 100 % of control | [6] 109 % of control | dose: 400.0 mg/kg/injection, schedule: Q04DX003 (ip), vehicle: saline 122 % of control

Cc1cccc(Cl)c1NC(=O)Nc1ccc(S(N)(=O)=O)cc1
inactive: [7] 94 % of control | [8] 102 % of control | [9] 92 % of control

COc1ccc(C(=O)c2c[nH]c3c(OC)ccc(O)c23)cc1
inactive: dose: 6.25 mg/kg/injection, schedule: Q04DX002 (ip), vehicle: saline with Tween-80 95 % of control | dose: 12.5 mg/kg/injection, schedule: Q04DX002 (ip), vehicle: saline with Tween-80 95 % of control | dose: 25.0 mg/kg/injection, schedule: Q04DX002 (ip), vehicle: saline with Tween-80 91 % of control

Cn1c2c(c3ccccc31)C(=C(c1ccccc1)c1ccccc1)c1ccccc1-2
inactive: dose: 100.0 mg/kg/injection, schedule: Q04DX002 (ip), vehicle: saline with Tween-80 87 % of control | dose: 200.0 mg/kg/injection, schedule: Q04DX002 (ip), vehicle: saline with Tween-80 87 % of control

CC1CCCC/C1=N/O (stereo not drawn)
inactive: [1] 100 % of control | [2] 97 % of control | [3] 92 % of control | [5] 105 % of control | [6] 91 % of control | dose: 400.0 mg/kg/injection, schedule: Q01DX009 (ip), vehicle: saline 97 % of control

O=[N+]([O-])c1ccc(N2CCN=N2)cc1
inactive: dose: 8.0 mg/kg/injection, schedule: Q01DX015 (ip), vehicle: saline 107 % of control | dose: 16.0 mg/kg/injection, schedule: Q01DX015 (ip), vehicle: saline 110 % of control | dose: 32.0 mg/kg/injection, schedule: Q01DX015 (ip), vehicle: saline 113 % of control | dose: 64.0 mg/kg/injection, schedule: Q01DX015 (ip), vehicle: saline 116 % of control | [1] 103 % of control | dose: 100.0 mg/kg/injection, schedule: Q04DX003 (ip), vehicle: saline sonified 104 % of control | [6] 111 % of control

COc1ccc(Cc2nc(-c3ccc(N=Cc4ccc(N(CCCl)CCCl)cc4)cc3)cs2)cc1
inactive: dose: 50.0 mg/kg/injection, schedule: Q01DX001 (ip), vehicle: carboxymethylcellulose (CMC) 88 % of control | dose: 100.0 mg/kg/injection, schedule: Q01DX001 (ip), vehicle: carboxymethylcellulose (CMC) 92 % of control | dose: 200.0 mg/kg/injection, schedule: Q01DX001 (ip), vehicle: carboxymethylcellulose (CMC) 97 % of control | dose: 400.0 mg/kg/injection, schedule: Q01DX001 (ip), vehicle: carboxymethylcellulose (CMC) 94 % of control

CC(/C=C/C(O)=C1/C(=O)CNC1=O)=C\[C@@H](C)[C@H]1O[C@@]2(C)O[C@H](C(=O)[C@@H]3O[C@@]32C)[C@@H]1C
inactive: dose: 25.0 mg/kg/injection, schedule: Q01DX009 (ip), vehicle: saline 94 % of control | dose: 50.0 mg/kg/injection, schedule: Q01DX009 (ip), vehicle: saline 100 % of control | [10] 89 % of control | [2] 93 % of control | dose: 100.0 mg/kg/injection, schedule: Q04DX003 (ip), vehicle: acetone 87 % of control | [11] 89 % of control | [12] 96 % of control

CCOc1ncnc2c1nnn2C1OC(CO)C(O)C1O (stereo not drawn)
inactive: dose: 12.5 mg/kg/injection, schedule: Q01DX001 (ip), vehicle: saline with Tween-80 105 % of control | dose: 25.0 mg/kg/injection, schedule: Q01DX001 (ip), vehicle: saline with Tween-80 107 % of control | dose: 50.0 mg/kg/injection, schedule: Q01DX001 (ip), vehicle: saline with Tween-80 105 % of control | dose: 100.0 mg/kg/injection, schedule: Q01DX001 (ip), vehicle: saline with Tween-80 104 % of control | dose: 200.0 mg/kg/injection, schedule: Q01DX001 (ip), vehicle: saline with Tween-80 105 % of control | dose: 400.0 mg/kg/injection, schedule: Q01DX001 (ip), vehicle: saline with Tween-80 108 % of control

CC(C)CCCC(C)C1CCC2C3CC(=O)OC45CC4CCC5(C)C3CCC12C (stereo not drawn)
inactive: [10] 94 % of control | dose: 100.0 mg/kg/injection, schedule: Q01DX009 (ip), vehicle: acetone 89 % of control | [11] 89 % of control | dose: 200.0 mg/kg/injection, schedule: Q01DX009 (ip), vehicle: acetone 91 % of control | [12] 91 % of control | dose: 400.0 mg/kg/injection, schedule: Q01DX009 (ip), vehicle: acetone 90 % of control

O=C(O)/C=C(/Cl)c1ccccc1
inactive: dose: 100.0 mg/kg/injection, schedule: Q04DX003 (ip), vehicle: saline with Tween-80 102 % of control | dose: 200.0 mg/kg/injection, schedule: Q04DX003 (ip), vehicle: saline with Tween-80 100 % of control | dose: 400.0 mg/kg/injection, schedule: Q04DX003 (ip), vehicle: saline with Tween-80 108 % of control

COc1cc(CCl)cc(OC)c1OC
inactive: [7] 95 % of control | [13] 93 % of control | [8] 90 % of control | [14] 95 % of control | [9] 88 % of control | [15] 97 % of control

Cc1cccc(Cl)c1NC(=O)CCCl
inactive: dose: 100.0 mg/kg/injection, schedule: Q01DX009 (ip), vehicle: saline with Tween-80 103 % of control | [4] 104 % of control | dose: 400.0 mg/kg/injection, schedule: Q01DX009 (ip), vehicle: saline with Tween-80 90 % of control

CC1(C)CN1C1=C(Cl)C(=O)C(N2CC2(C)C)=C(Cl)C1=O
inactive: dose: 1.56 mg/kg/injection, schedule: Q04DX003 (ip), vehicle: saline 92 % of control | dose: 3.12 mg/kg/injection, schedule: Q04DX003 (ip), vehicle: saline 96 % of control | dose: 6.25 mg/kg/injection, schedule: Q04DX003 (ip), vehicle: saline 113 % of control | dose: 12.5 mg/kg/injection, schedule: Q04DX003 (ip), vehicle: saline 101 % of control | dose: 25.0 mg/kg/injection, schedule: Q04DX003 (ip), vehicle: saline 96 % of control | dose: 50.0 mg/kg/injection, schedule: Q04DX003 (ip), vehicle: saline 92 % of control | dose: 75.0 mg/kg/injection, schedule: Q04DX003 (ip), vehicle: saline 104 % of control | dose: 115.0 mg/kg/injection, schedule: Q04DX003 (ip), vehicle: saline 104 % of control | dose: 170.0 mg/kg/injection, schedule: Q04DX003 (ip), vehicle: saline 108 % of control

Nc1ccccc1/C=C(\C(=O)O)c1cccc(Cl)c1
inactive: [13] 99 % of control | [14] 101 % of control | [15] 108 % of control

CN(C)CCCNc1nc(-c2cccc(C(Cl)(Cl)Cl)c2)nc(C(Cl)(Cl)Cl)n1
inactive: dose: 75.0 mg/kg/injection, schedule: Q01DX001 (ip), vehicle: saline 95 % of control | dose: 150.0 mg/kg/injection, schedule: Q01DX001 (ip), vehicle: saline 101 % of control | dose: 300.0 mg/kg/injection, schedule: Q01DX001 (ip), vehicle: saline 91 % of control
